# Measurements taken from patent publication US20250304623A1, “PEPTIDES FOR INTRACELLULAR DELIVERY” (UNIVERSIDADE DE SANTIAGO DE COMPOSTELA, priority 2022, published 2025).
# How the values were obtained:
# Type in all cases: cell-based
# [1] = system: ARPE19 cells expressing EGFP; assay: Cas9-RNP delivery against EGFP (gene editing, plate reader), ARPE19
# Protocol: (§1) To generate an EGFP expressing HeLa cell line, HeLa cells were transfected with EGFP pDNA (pEGFP-C1, Clontech) and stable transfectants were selected with 400 μg/mL of G-418 (Millipore). Green clones were selected by epifluorescence microscopy and tested for EGFP expression stability through several passages. […] All other EGFP-expressing cell lines were obtained in a similar way from parent non-EGFP-expressing cell lines.
# Cells expressing EGFP were seeded in a 96 well plate the day before the experiment at a concentration of 50,000 cell/mL (100 μL/w) in DMEM+10% FBS+1% Gln-Abt. For robotic library screening, the delivery of Cas9-RNP against EGFP (RNP designed to knock-out the gene encoding for the enhanced green fluorescent protein (EGFP)) was performed. For RNP assembly, 9.2 μL of crRNA and 9.2 μL of tracrRNA were mixed in 211.6 μL of Nuclease-Free Duplex Buffer (IDT), incubated for 5 min at 95° C. and slowly cooled at rt (see I. Lostalé-Seijo, et al. Peptide/Cas9 nanostructures for ribonucleoprotein cell membrane transport and gene edition, Chem. Sci., 2017). Cas9 protein was dissolved in DMEM at a final concentration of 4 μM and equal volumes of the RNA complex and Cas9 were mixed and incubated for 5 min at rt. 75 μL of the corresponding amphiphile concentrations were added to 5 μL of RNP at 2 μM. The mixture was shaken for 30 min at room temperature before the addition to the cells. The cell medium was aspirated, and cells were washed twice with PBS. Cells were covered with 30 μL of DMEM and 20 μL of the RNP/amphiphile complexes were added to the cells (final peptide concentrations=2.5, 5 and 10 μM; final Cas9-RNP concentration=50 nM) and incubated for 4 h. After the incubation, the medium was replaced by 100 μL of fresh DMEM supplemented with 10% FBS. The total EGFP fluorescence was quantified after 72 h in a plate reader (FIG. 2, Table 1 (right) and Table 6). All experiments were done in triplicate. […]
# (§2) Tables 26-31 show the mean (triplicates) percentage of gene editing, accounted by GFP fluorescence intensity decrease (% of reduction), measured after the transfection of Cas9-RNP by different amphiphiles at different concentrations in a variety of cell lines. Background values, accounted by untreated control cells, were subtracted for processing.
# [2] = system: A549 cells expressing EGFP; assay: EGFP-targeting siRNA delivery (GFP silencing vs siMOCK), A549; settings: for percentage of GFP-silencing relative to siMOCK: A549 cells
# Protocol: as §1
# Cells expressing EGFP were seeded in a 96 well plate the day before the experiment at a concentration of 50,000 cell/mL (100 μL/w) in DMEM+10% FBS+1% Gln-Abt. For robotic library screening, the delivery of an EGFP-targeting siRNA (EGFP: enhanced green fluorescent protein, Ambion® Silencer® GFP Positive Control siRNA (siGFP) (AM4626)) in six different cell lines expressing EGFP was performed. […] The mixture was shaken for 30 min at room temperature (rt) before the addition to the cells. The cell medium was aspirated, and cells were washed twice with PBS. Finally, 50 μL of the solution of siRNA/amphiphile complexes were added to the cells and incubated for 4 h. After transfection, the medium was replaced by 100 μL of fresh DMEM supplemented with 10% FBS. The fluorescence knockdown was quantified after 72 h in a plate reader, by comparison with cells transfected with a non-targeting siRNA control (siMOCK, Silencer™ Negative Control No. 1 siRNA (siMOCK) (AM4611)). EGFP knockdown was compared with Lipofectamine® RNAiMAX silencing efficiency (30-60% depending on cell line, defined with a numeric value in the below tables). All experiments were done in triplicate.
# (§3) Tables 1-7: RLuc (pDNA) or EGFP (mRNA) expression levels were normalized to Lipofectamine reagents (value=1) and expressed as fold-times signal increase. In the case of siRNA, the siRNA treated cells fluorescence was compared with siMOCK control fluorescence, while Cas9-RNP mediated knockout was measured against the fluorescence of untreated cells. In both siRNA and Cas9-RNP, values are expressed as % fluorescence reduction. Amphiphile concentration was 5 μM in all cases. All experiments were performed in triplicate.
# as §2, with “20-25” for “26-31”, “GFP-silencing,” for “gene editing,”, “by” for “by GFP”, “relative to a non-targeting siRNA (siMOCK) control,” for “(% of reduction),”, “siRNA” for “Cas9-RNP”
# [3] = system: Hela cells expressing EGFP; assay: Cas9-RNP delivery against EGFP (gene editing, plate reader), HeLa; settings: for % GFP silencing due to gene editing (Cas9-RNP): HeLa
# Protocol: as §1
# Cells expressing EGFP were seeded in a 96 well plate the day before the experiment at a concentration of 50,000 cell/mL (100 μL/w) in DMEM+10% FBS+1% Gln-Abt. For robotic library screening, the delivery of Cas9-RNP against EGFP (RNP designed to knock-out the gene encoding for the enhanced green fluorescent protein (EGFP)) was performed. For RNP assembly, 9.2 μL of crRNA and 9.2 μL of tracrRNA were mixed in 211.6 μL of Nuclease-Free Duplex Buffer (IDT), incubated for 5 min at 95° C. and slowly cooled at rt (see I. Lostalé-Seijo, et al. Peptide/Cas9 nanostructures for ribonucleoprotein cell membrane transport and gene edition, Chem. Sci., 2017). Cas9 protein was dissolved in DMEM at a final concentration of 4 μM and equal volumes of the RNA complex and Cas9 were mixed and incubated for 5 min at rt. 75 μL of the corresponding amphiphile concentrations were added to 5 μL of RNP at 2 μM. The mixture was shaken for 30 min at room temperature before the addition to the cells. The cell medium was aspirated, and cells were washed twice with PBS. Cells were covered with 30 μL of DMEM and 20 μL of the RNP/amphiphile complexes were added to the cells (final peptide concentrations=2.5, 5 and 10 μM; final Cas9-RNP concentration=50 nM) and incubated for 4 h. After the incubation, the medium was replaced by 100 μL of fresh DMEM supplemented with 10% FBS. The total EGFP fluorescence was quantified after 72 h in a plate reader (FIG. 2, Table 1 (right) and Table 6). All experiments were done in triplicate.
# as §3, §2
substance,measurement,setting,value
"Ac-RHLK*RHK*RRLK*RH-NH2 (Ac-RHLKRHKRRLKRH-NH2; not fully specified (residues 4, 7, 11); printed as Ac-RHLK*RHK*RRLK*RH-NH2; also: linker on K* not given here) [13(3His)]","percentage of gene editing, GFP fluorescence intensity decrease (% of reduction)","[1]; Petroselinyl, 15 μM",34%
same,siRNA % fluorescence reduction vs siMOCK,"[2]; A549, amphiphile 5 μM, hydrophobic tail",71%
same,percentage of GFP-silencing relative to siMOCK,"[2]; Dodecanal, 10 μM",10%
same,percentage of GFP-silencing relative to siMOCK,"[2]; Dodecanal, 15 μM",37%
same,percentage of GFP-silencing relative to siMOCK,"[2]; Myristoleyl, 10 μM",28%
same,percentage of GFP-silencing relative to siMOCK,"[2]; Myristoleyl, 15 μM",25%
same,percentage of GFP-silencing relative to siMOCK,"[2]; Oleyl, 5 μM",22%
same,percentage of GFP-silencing relative to siMOCK,"[2]; Oleyl, 10 μM",26%
same,percentage of GFP-silencing relative to siMOCK,"[2]; Oleyl, 15 μM",29%
same,percentage of GFP-silencing relative to siMOCK,"[2]; Palmitoleyl, 10 μM",36%
same,percentage of GFP-silencing relative to siMOCK,"[2]; Palmitoleyl, 15 μM",28%
same,percentage of GFP-silencing relative to siMOCK,"[2]; Petroselinyl, 10 μM",42%
same,percentage of GFP-silencing relative to siMOCK,"[2]; Petroselinyl, 15 μM",71%
same,"percentage of gene editing, GFP fluorescence intensity decrease (% of reduction)","[3]; Myristoleyl, 5 μM, HeLa cells",18%
"Ac-RHLK*RLK*RRLK*RL-NH2 (Ac-RHLKRLKRRLKRL-NH2; not fully specified (residues 4, 7, 11); printed as Ac-RHLK*RLK*RRLK*RL-NH2; also: linker on K* not given here) [13(Arg-His)]","percentage of gene editing, GFP fluorescence intensity decrease (% of reduction)","[1]; Dodecanal, 5 μM",25%
same,"percentage of gene editing, GFP fluorescence intensity decrease (% of reduction)","[1]; Dodecanal, 15 μM",21%
same,"percentage of gene editing, GFP fluorescence intensity decrease (% of reduction)","[1]; Myristoleyl, 10 μM",15%
same,"percentage of gene editing, GFP fluorescence intensity decrease (% of reduction)","[1]; Myristoleyl, 15 μM",9%
same,"percentage of gene editing, GFP fluorescence intensity decrease (% of reduction)","[1]; Oleyl, 5 μM",14%
same,"percentage of gene editing, GFP fluorescence intensity decrease (% of reduction)","[1]; Oleyl, 10 μM",−6%
same,"percentage of gene editing, GFP fluorescence intensity decrease (% of reduction)","[1]; Palmitoleyl, 5 μM",25%
same,"percentage of gene editing, GFP fluorescence intensity decrease (% of reduction)","[1]; Palmitoleyl, 10 μM",−12%
same,"percentage of gene editing, GFP fluorescence intensity decrease (% of reduction)","[1]; Palmitoleyl, 15 μM",20%
same,"percentage of gene editing, GFP fluorescence intensity decrease (% of reduction)","[1]; Petroselinyl, 15 μM",15%
same,percentage of GFP-silencing relative to siMOCK,"[2]; Dodecanal, 10 μM",28%
same,percentage of GFP-silencing relative to siMOCK,"[2]; Dodecanal, 15 μM",18%
same,percentage of GFP-silencing relative to siMOCK,"[2]; Myristoleyl, 10 μM",17%
same,percentage of GFP-silencing relative to siMOCK,"[2]; Myristoleyl, 15 μM",5%
same,percentage of GFP-silencing relative to siMOCK,"[2]; Oleyl, 5 μM",23%
same,percentage of GFP-silencing relative to siMOCK,"[2]; Oleyl, 10 μM",22%
same,percentage of GFP-silencing relative to siMOCK,"[2]; Oleyl, 15 μM",15%
same,percentage of GFP-silencing relative to siMOCK,"[2]; Palmitoleyl, 15 μM",14%
same,percentage of GFP-silencing relative to siMOCK,"[2]; Petroselinyl, 10 μM",20%
same,percentage of GFP-silencing relative to siMOCK,"[2]; Petroselinyl, 15 μM",11%
same,"percentage of gene editing, GFP fluorescence intensity decrease (% of reduction)","[3]; Dodecanal, 5 μM, Hela cells",37%
same,"percentage of gene editing, GFP fluorescence intensity decrease (% of reduction)","[3]; Dodecanal, 10 μM, HeLa cells",78%
same,% GFP silencing due to gene editing (Cas9-RNP),"[3]; 5 μM, Ole tail",73%
same,% GFP silencing due to gene editing (Cas9-RNP),"[3]; 5 μM, Pal tail",73%
same,"percentage of gene editing, GFP fluorescence intensity decrease (% of reduction)","[3]; Myristoleyl, 5 μM, HeLa cells",48%
same,"percentage of gene editing, GFP fluorescence intensity decrease (% of reduction)","[3]; Myristoleyl, 10 μM, HeLa cells",85%
same,"percentage of gene editing, GFP fluorescence intensity decrease (% of reduction)","[3]; Oleyl, 5 μM, HeLa cells",46%
same,"percentage of gene editing, GFP fluorescence intensity decrease (% of reduction)","[3]; Oleyl, 10 μM, HeLa cells",73%
same,"percentage of gene editing, GFP fluorescence intensity decrease (% of reduction)","[3]; Palmitoleyl, 5 μM, HeLa cells",48%
same,"percentage of gene editing, GFP fluorescence intensity decrease (% of reduction)","[3]; Palmitoleyl, 10 μM, HeLa cells",73%
same,"percentage of gene editing, GFP fluorescence intensity decrease (% of reduction)","[3]; Palmitoleyl, 15 μM, Hela cells",78%
same,"percentage of gene editing, GFP fluorescence intensity decrease (% of reduction)","[3]; Petroselinyl, 5 μM, HeLa cells",23%
same,"percentage of gene editing, GFP fluorescence intensity decrease (% of reduction)","[3]; Petroselinyl, 10 μM, Hela cells",69%
same,"percentage of gene editing, GFP fluorescence intensity decrease (% of reduction)","[3]; Petroselinyl, 15 μM, Hela cells",80%
